Laboratory results taken from patent US20080026088A1, “Reduced isoalpha acid based protein kinase modulation cancer treatment” (Metaproteomics, LLC, priority 2006, published 2008).
In brackets after ≈: the same amount, converted by molar mass. Where two headings read alike, the source gives them in different places. Marks after values point to notes of the source that are not given here.

How the values were obtained:
[1] = system: insulin-resistant 3T3-L1 adipocytes; experiment: Adiponectin secretion from insulin-resistant 3T3-L1 adipocytes; format: cell-based, murine; conditions: for Adiponectin/IL-6: ratio of Adiponectin Index to IL-6 Index, insulin-resistant 3T3-L1 adipocytes; for EC50: Mus musculus; for Maximum Adiponectin Secretion: estimated from the y-intercept of Hofstee plots; for dose at which maximal adiponectin secretion was observed: of four doses tested
[2] = system: TNFα-treated 3T3-L1 adipocytes; experiment: Adiponectin secretion from TNFα-treated 3T3-L1 adipocytes; format: cell-based, murine
Procedure: For two days, the cells were allowed grow to reach confluence. […] (3) 0.5 μM dexamethasone and (4) 10 μg/ml insulin (MDI medium). […] Adiponectin Assay—The adiponectin secreted into the medium was quantified using the Mouse Adiponectin Quantikine® Immunoassay kit with no modifications (R&D Systems, Minneapolis, Minn.). […] Statistical Calculations and Interpretation—All assays were preformed in duplicate. […] Differences among the doses and test agents were determined using the Student's t-test without correction for multiple comparisons; the nominal five percent probability of a type I error was selected.

[3] = system: TNFα-treated 3T3-L1 adipocytes; experiment: IL-6 secretion from TNFα-treated 3T3-L1 adipocytes; format: cell-based, murine; conditions: for IL-6 Index: D5 3T3-L1 adipocytes, indexed to TNFα control
[4] = system: LPS-stimulated 3T3-L1 adipocytes; experiment: IL-6 secretion in LPS/3T3-L1 adipocytes; format: cell-based, murine; conditions: 100 ng LPS/ml, D5 3T3-L1 adipocytes
[5] = system: LPS-treated 3T3-L1 adipocytes; experiment: Adiponectin secretion in LPS/3T3-L1 adipocytes; format: cell-based, murine; conditions: for Maximum adiponectin stimulation: 100 ng/ml LPS, D5 3T3-L1; for Concentration of maximum stimulation of adiponectin secretion: LPS/3T3-L1 adipocytes; for Emax: Mus musculus, 3T3-L1, at the concentration of maximum stimulation (c1), NS = not significantly different from the LPS control
[6] = system: NF-kBp65 nuclear translocation; experiment: Nuclear NF-kBp65 (TransAM) in TNFα-treated 3T3-L1 adipocytes; format: cell-based, murine; conditions: for inhibition at […] / inhibition at 5 µg/mL: Mus musculus; for inhibition at […]: 2.5 μg/ml; for inhibition at 5 µg/mL / inhibition of nuclear translocation of NF-kBp65: 5.0 μg/ml
Procedure: Cell Culture and Treatment—Following differentiation 3T3-L1 adipocytes were maintained in post-differentiation medium for an additional 40 days. […] Hops derivatives and the positive control pioglitazone were tested at concentrations of 2.5, and 5.0 μg/ml. Test materials were added 1 hour prior to and nuclear extracts were prepared three and 24 hours following treatment with TNFα.
ELISA—3T3-L1 adipocytes were maintained in growth media for 40 days following differentiation. Nuclear NF-kBp65 was determined using the TransAM™ NF-kB kit from Active Motif (Carlsbad, Calif.) was used with no modifications. Jurkat nuclear extracts provided in the kit were derived from cells cultured in medium supplemented with 50 ng/ml TPA (phorbol, 12-myristate, 13 acetate) and 0.5 μM calcium ionophore A23187 for two hours at 37° C. immediately prior to harvesting.
Protein assay—Nuclear protein was quantified using the Active Motif Fluorescent Protein Quantification Kit.

[7] = system: RL 95-2 endometrial cancer cells; experiment: Cancer cell proliferation, CyQuant; format: cell-based; conditions: Homo sapiens, RL95-2; 10 μg/ml, 72 hours; read-out: inhibition of cell proliferation relative to the DMSO solvent control
Procedure: Methods—The inhibitory effects of test compounds of the present invention on cancer cell proliferation were examined in the RL 95-2 endometrial cancer cell model (an over expressor of AKT kinase), and in the HT-29 (constitutively expressing COX-2) and SW480 (constitutively expressing activated AKT kinase) colon cancer cell models. Briefly, the target cells were plated into 96 well tissue culture plates and allowed to grow until subconfluent. The cells were then treated for 72 hours with various amounts of the test compounds as described in Example 4 and relative cell proliferation determined by the CyQuant (Invitrogen, Carlsbad, Calif.) commercial fluorescence assay.

3T3-L1 adipocytes = experiment: Lipogenesis (Oil Red O / BODIPY) in 3T3-L1 adipocytes; format: cell-based, murine; conditions: 50 μg test material/ml
Procedure: Prior to experiments, cells were cultured in DMEM containing 10% FBS-HI added 50 units penicillin/ml and 50 μg streptomycin/ml, and maintained in log phase prior to experimental setup. Cells were grown in a 5% CO2 humidified incubator at 37° C. Components of the pre-confluent medium included (1) 10% FBS/DMEM containing 4.5 g glucose/L; (2) 50 U/ml penicillin; and (3) 50 μg/ml streptomycin. Growth medium was made by adding 50 ml of heat inactivated FBS and 5 ml of penicillin/streptomycin to 500 ml DMEM. This medium was stored at 4° C. Before use, the medium was warmed to 37° C. in a water bath.
3T3-T1 cells were seeded at an initial density of 6×10^4 cells/cm^2 in 24-well plates. For two days, the cells were allowed grow to reach confluence. […]
Oil Red O Staining—Triglyceride content of D6/D7-differentiated 3T3-L1 cells was estimated with Oil Red O according to the method of Kasturi and Joshi [Kasturi, R. and Joshi, V. C. […] The resulting stained oil droplets were extracted from the cells with isopropanol and quantified by spectrophotometric analysis at 540 nm (MEL312e BIO-KINETICS READER, Bio-Tek Instruments, Winooski, Vt.). […]

[8] = Non-fasting serum glucose and insulin in db/db diabetic mice; format: in vivo, mouse; conditions: three consecutive days
Procedure: The Model—Male, C57BLKS/J m^+/m^+Lepr^db (db/db) mice were used to assess the potential of the test materials to reduce fasting serum glucose or insulin concentrations. This strain of mice is resistant to leptin by virtue of the absence of a functioning leptin receptor.
Testing Procedure—Test substances were administered daily by gavage in 0.2% Tween-80. Serum was collected from the retroorbital sinus before the initial dose and ninety minutes after the third and final dose. Non-fasting serum glucose was determined enzymatically by the mutarotase/glucose oxidase method and serum insulin was determined by a mouse specific ELISA.
The Model—Male, C57BLKS/J m+/m+ Leprdb (db/db) mice were used to assess the potential of the test materials to reduce fasting serum glucose or insulin concentrations. This strain of mice is resistant to leptin by virtue of the absence of a functioning leptin receptor.
Testing Procedure—Test substances were administered daily by gavage in 0.2% Tween-80. Serum was collected from the retroorbital sinus before the initial dose and ninety minutes after the fifth and final dose. Non-fasting serum glucose was determined enzymatically by the mutarotase/glucose oxidase method and serum insulin was determined by a mouse specific ELISA.

[9] = system: A549 pulmonary epithelial cells; experiment: Mite dust allergen stimulated PGE2 biosynthesis in A549 cells; format: cell-based, human; conditions: 10 μg/ml, added 60 min before mite dust allergen 1000 ng/ml, 18 h
Source text: Mite dust allergen isolation—Dermatophagoides farinae is the American house dust mite. D. farinae were raised on a 1:1 ratio of Purina Laboratory Chow (Ralston Purina, Co, St. Louis, Mo.) and Fleischmann's granulated dry yeast (Standard Brands, Inc. New York, N.Y.) at room temperature and 75% humidity. Live mites were aspirated from the culture container as they migrated from the medium, killed by freezing, desiccated and stored at 0% humidity. The allergenic component of the mite dust was extracted with water at ambient temperature. Five-hundred mg of mite powder were added to 5 ml of water (1:10 w/v) in a 15 ml conical centrifuge tube (VWR, Rochester, N.Y.), shaken for one minute and allowed to stand overnight at ambient temperature. The next day, the aqueous phase was filtered using a 0.2 μm disposable syringe filter (Nalgene, Rochester, N.Y.). The filtrate was termed mite dust allergen and used to test for induction of PGE2 biosynthesis in A549 pulmonary epithelial cells.
Cell culture and treatment—The human airway epithelial cell line, A549 (American Type Culture Collection, Bethesda, Md.) was cultured and treated as previously described in Example 6. Mite allergen was added to the culture medium to achieve a final concentration of 1000 ng/ml. Eighteen hours later, the media were sampled for PGE2 determination.

[10] = Collagen induced rheumatoid arthritis murine model; format: in vivo, mouse; conditions: 10 mg/kg
[11] = Mus musculus, 3T3-L1, 1.0 μg/ml, with 10 ng TNFα/ml, read-out: % Inhibition of IL-6 secretion
[12] = 3T3-L1, 3 h, three hours post TNFα

Molecule: Cc1c(C)c2c(c(C)c1O)CCC(C)(COc1ccc(CC3SC(=O)NC3=O)cc1)O2 (centres unmarked) [Troglitazone]
- Adiponectin/IL-6 ([1]; 5.0 μg/ml): 1.12
- EC50 ([1]; 3T3-L1, half maximal adiponectin secretion, estimated from the slope of Hofstee plots, insulin-resistant 3T3-L1 cells, read-out: Test Material at Half Maximal Secretion): 0.085 µg/mL (≈ 0.193 µM)
- EC50 ([1]; 3T3-L1, slope of modified Hofstee plot, read-out: concentration required for half maximal adiponectin secretion): 0.085 µg/mL (≈ 0.193 µM)
- Maximum Adiponectin Secretion ([1]; insulin-resistant 3T3-L1 cells): 2.29 Fold relative to control
- Maximum adiponectin secretion estimated from the y-intercept ([1]; modified Hofstee plot): 2.29 fold
- Concentration of maximum adiponectin secretion ([2]; 10 ng TNFα/ml): 0.625 µg/mL
- maximum increase of adiponectin secretion over the TNFα control ([2]; 10 ng TNFα/ml): 51%
- inhibition at 1 µg/mL ([3]; Mus musculus, 3T3-L1, 1 μg/ml, 10 ng TNFα/ml, read-out: inhibition of IL-6 secretion relative to the controls): 34%
- inhibition at 1 µg/mL [3, 11]: 34%
- Concentration providing the maximum inhibition of IL-6 secretion [4]: 10.0 µg/mL
- Maximum adiponectin stimulation [5]: 15%
- Concentration of maximum stimulation of adiponectin secretion [5]: 0.625 µg/mL
- Emax [5]: 15%

Molecule: CC(C)CCC1=C(O)C(C(=O)C(C)C)=C(O)C(CCC(C)C)(CCC(C)C)C1=O [hexahydro colupulone, hexahydrocolupulone]
- Maximum Adiponectin Secretion ([1]; insulin-resistant 3T3-L1 cells): 1.83 Fold relative to control
- dose at which maximal adiponectin secretion was observed [1]: 12.5 µg/mL
- concentration required for half maximal adiponectin secretion ([1]; slope of modified Hofstee plot): 3.2 µg/mL

Molecule: COc1cc(O)c(CC=C(C)C)c(O)c1C(=O)/C=C/c1ccc(O)cc1 [xanthohumol]
- dose at which maximal adiponectin secretion was observed [1]: 1.25 µg/mL
- inhibition at […] [6, 12]: 6.9%
- inhibition at 5 µg/mL [6, 12]: 15.6%
- inhibition at […] ([6]; 3T3-L1, 24 hours post TNFα): 8%
- inhibition at 5 µg/mL ([6]; 3T3-L1, 24 hours post TNFα): 13.4%
- inhibition at 10 µg/mL [7]: > 50%

Molecule: CN(C)C(=N)N=C(N)N [metformin, Metformin]
- lipogenic index (observed) (3T3-L1 adipocytes): 0.79
- IL-6 Index ([3]; 1.0 μg/ml, with 10 ng TNFα/ml): 0.91
- IL-6 Index ([3]; 5.0 μg/ml, with 10 ng TNFα/ml): 0.96
- IL-6 Index ([3]; 10 μg/ml, with 10 ng TNFα/ml): 0.78
- IL-6 Index ([3]; 50 μg/ml, with 10 ng TNFα/ml): 0.78
- inhibition at 1 µg/mL [3, 11]: 9%
- inhibition at 5 µg/mL ([3]; Mus musculus, 3T3-L1, 5.0 μg/ml, with 10 ng TNFα/ml): 4%
- inhibition at 10 µg/mL ([3]; Mus musculus, 3T3-L1, 10 μg/ml, with 10 ng TNFα/ml): 22%
- inhibition at 50 µg/mL ([3]; Mus musculus, 3T3-L1, 50 μg/ml, with 10 ng TNFα/ml): 22%
- reduction in serum insulin [8]: 17%

Molecule: CC(=O)Oc1ccccc1C(=O)O [Aspirin]
- Concentration providing the maximum inhibition of IL-6 secretion [4]: 25.0 µg/mL
- Maximum adiponectin stimulation [5]: failed to induce adiponectin secretion
- Concentration of maximum stimulation of adiponectin secretion [5]: 113 µg/mL
- Emax [5]: < 7%

Molecule: Beta acids
- Percent PGE2 Inhibition [9]: 83%

Molecule: O=C(O)c1ccccc1O [salicylic acid]
- Concentration providing the maximum inhibition of IL-6 secretion [4]: 50.0 µg/mL
- Maximum adiponectin stimulation [5]: failed to induce adiponectin secretion
- Concentration of maximum stimulation of adiponectin secretion [5]: 173 µg/mL
- Emax [5]: < 7%

Molecule: CC(C)Cc1ccc(C(C)C(=O)O)cc1 (centres unmarked) [ibuprofen]
- Concentration providing the maximum inhibition of IL-6 secretion [4]: 0.625 µg/mL
- Maximum adiponectin stimulation [5]: 22%
- Concentration of maximum stimulation of adiponectin secretion [5]: 0.625 µg/mL
- Emax [5]: 22%

Molecule: C[C@]12C=CC(=O)C=C1CC[C@@H]1[C@@H]2[C@@H](O)C[C@@]2(C)[C@H]1CC[C@]2(O)C(=O)CO [prednisolone]
- days with significant reduction of arthritic index [10]: 30 to 42 days

Molecule: CCc1ccc(CCOc2ccc(CC3SC(=O)NC3=O)cc2)nc1 (centres unmarked) [Pioglitazone]
- Concentration of maximum adiponectin secretion ([2]; 10 ng TNFα/ml): 1.25 µg/mL
- maximum increase of adiponectin secretion over the TNFα control ([2]; 10 ng TNFα/ml): 80%
- Adiponectin Index Observed ([2]; 1.0 μg/ml, TNFα/3T3-L1 model, indexed to TNFα control (Table 26)): 1.80
- Concentration of maximum adiponectin secretion ([2]; Table 16, 10 ng TNFα/ml): 1.25 µg/mL
- Adiponectin Index ([2]; Table 16, maximum over four doses, 10 ng TNFα/ml): 1.47
- Concentration providing the maximum inhibition of IL-6 secretion [4]: 5.00 µg/mL
- Maximum adiponectin stimulation [5]: 12%
- Concentration of maximum stimulation of adiponectin secretion [5]: 1.25 µg/mL
- Emax [5]: 12%
- inhibition of nuclear translocation of NF-kBp65 ([6]; 24 hours post TNFα): did not inhibit
- inhibition of nuclear translocation of NF-kBp65 ([6]; three hours post TNFα): did not inhibit

Molecule: CC(C)CCC1=C(O)C(C(=O)C(C)C)=C(O)C(CCC(C)C)(CCC(C)C)C1=O [Hexahydrocolupulone (HHCL)]
- Adiponectin/IL-6 ([1]; 50.0 μg/ml): 0.60#

Molecule: COc1ccc2c(c1)c(CC(=O)O)c(C)n2C(=O)c1ccc(Cl)cc1 [Indomethacin, indomethacin]
- Maximum adiponectin stimulation [5]: 9%
